Results as given in publication PMC12677607, “Identification of a Pair of Linear or Cyclic Naturally Inspired Bifunctional Lipopeptide Antibiotics That Overcome Antimicrobial Resistance” (Advanced Science, 2025).
≈ marks a conversion by molar mass, not a printed value. Bridge positions count the residues as written; N and C are the ends. Square brackets hold non-standard residues; d marks the D form. Peptide text beside a SMILES is read from it. * marks the point of attachment. Myristoyl = CCCCCCCCCCCCCC(=O)*; dOrn = NCCC[C@@H](N)C(=O)O; Orn = NCCC[C@H](N)C(=O)O

Legend:
[1] = system: Acinetobacter baumannii 1104008; assay: microbe, parasite or virus in culture; type: cell-based; conditions: for MIC (μg/mL) A. baumannii 1104008: 1104008, 16 h
Description: (§1) All MIC assays were performed two independent times (n = 2) in 96‐well plates using a broth micro‐dilution method. The lowest concentration of that inhibited visible microbial growth was recorded as the MIC value.
(§2) For most of bacterial strains, overnight cultures were diluted 5000‐fold in LB broth. For E. faecium and S. aureus, overnight cultures were diluted 1000‐ and 10000‐fold in LB broth, respectively. 100 µL of diluted cells was mixed with 100 µL of LB broth containing each peptide ranging from 64 to 0.125 µg mL^−1 at 2‐fold serial dilutions.

[2] = system: Klebsiella pneumoniae CRKP 5452; assay: microbe, parasite or virus in culture; type: cell-based; conditions: for MIC (μg/mL) K. pneumoniae CRKP 5452: CRKP 5452, 16 h
Description: as §1, §2

[3] = system: Staphylococcus aureus USA300; assay: microbe, parasite or virus in culture; type: cell-based
Description: as §1, §2

[4] = system: Streptococcus pyogenes ATCC 19615; assay: microbe, parasite or virus in culture; type: cell-based; conditions: for MIC (μg/mL) S. pyogenes ATCC 19615: ATCC 19615, 16 h
Description: as §1, §2

[5] = system: Candida albicans ATCC 10231; assay: MIC assay (YPD broth); type: cell-based; conditions: for MIC (μg/mL) C. albicans ATCC 10231: ATCC 10231, 16 h
Description: as §1
(§3) For fungal strains, overnight cultures were diluted 2000‐fold in YPD broth. 100 µL of diluted cells was mixed with 100 µL of YPD broth containing each peptide ranging from […] 64 to 0.125 µg mL^−1 at 2‐fold serial dilutions.

HeLa cells = assay: Cytotoxicity assay (CCK-8); type: cell-based, human; conditions: 48 h
Description: The cytotoxicity of each synAQU peptide was assessed using a cell counting kit‐8 (CCK‐8) assay. HeLa cells were first seeded in a 96‐well flat‐bottom microtiter plate with a density of ∼5000 cells per well and incubated in the DMEM medium supplemented with 10% FBS at 37 °C with 5% CO2 for 24 h. […] All cytotoxicity experiments were done in triplicate (n = 3) and repeated two independent times (n = 2).

[6] = system: four Gram-negative bacteria, four Gram-positive bacteria, and one fungal pathogen; assay: Initial antimicrobial assay of 17 synAQUs; type: cell-based; conditions: MIC up to 64 µg mL^−1, Figure 3a
Description: as §1, §2, §3

Escherichia coli DH5α = assay: MIC assay (broth micro-dilution); type: cell-based; conditions: Table S11; LB broth, 37 °C, 16 h, n = 2
Description: as §1, §2

Shigella Castellani LXX = assay: MIC assay (broth micro-dilution); type: cell-based; conditions: Table S11; LB broth, 37 °C, 16 h, n = 2
Description: as §1, §2

[7] = system: Acinetobacter baumannii ATCC 17978; assay: microbe, parasite or virus in culture; type: cell-based; conditions: ATCC 17978, 16 h
Description: as §1, §2

[8] = system: Acinetobacter baumannii ATCC 19606; assay: microbe, parasite or virus in culture; type: cell-based; conditions: ATCC 19606, 16 h
Description: as §1, §2

[9] = system: Acinetobacter baumannii P53; assay: microbe, parasite or virus in culture; type: cell-based; conditions: Table S11; LB broth, 37 °C, 16 h, n = 2
Description: as §1, §2

Enterococcus faecalis 26 = assay: microbe, parasite or virus in culture; type: cell-based; conditions: 26, 16 h
Description: as §1, §2

Enterococcus faecalis 28 = assay: microbe, parasite or virus in culture; type: cell-based; conditions: 28, 16 h
Description: as §1, §2

[10] = system: Enterococcus faecalis ATCC 29212; assay: microbe, parasite or virus in culture; type: cell-based; conditions: ATCC 29212, 16 h
Description: as §1, §2

[11] = system: Enterococcus faecium 35682; assay: microbe, parasite or virus in culture; type: cell-based; conditions: 35682, 16 h
Description: as §1, §2

[12] = system: Klebsiella pneumoniae ATCC 13883; assay: microbe, parasite or virus in culture; type: cell-based; conditions: ATCC 13883, 16 h
Description: as §1, §2

[13] = system: Klebsiella pneumoniae CRKP HS11286; assay: microbe, parasite or virus in culture; type: cell-based; conditions: CRKP HS11286, 16 h
Description: as §1, §2

[14] = system: Klebsiella pneumoniae NCTC 5056; assay: microbe, parasite or virus in culture; type: cell-based; conditions: NCTC 5056, 16 h
Description: as §1, §2

[15] = system: Pseudomonas aeruginosa ATCC 9027; assay: microbe, parasite or virus in culture; type: cell-based; conditions: ATCC 9027, 16 h
Description: as §1, §2

[16] = system: Pseudomonas aeruginosa PAO1; assay: microbe, parasite or virus in culture; type: cell-based; conditions: PAO1, 16 h
Description: as §1, §2

[17] = system: Salmonella enterica ATCC 14028; assay: microbe, parasite or virus in culture; type: cell-based; conditions: ATCC 14028, 16 h
Description: as §1, §2

[18] = system: Salmonella typhimurium LXX; assay: microbe, parasite or virus in culture; type: cell-based; conditions: murium LXX, 16 h
Description: as §1, §2

[19] = system: Staphylococcus aureus ATCC 25923; assay: microbe, parasite or virus in culture; type: cell-based; conditions: ATCC 25923, 16 h
Description: as §1, §2

[20] = system: Staphylococcus aureus ATCC 6538; assay: microbe, parasite or virus in culture; type: cell-based; conditions: ATCC 6538, 16 h
Description: as §1, §2

[21] = system: Staphylococcus aureus Newman; assay: microbe, parasite or virus in culture; type: cell-based; conditions: Newman, 16 h
Description: as §1, §2

[22] = system: Streptococcus mutans ATCC 25175; assay: microbe, parasite or virus in culture; type: cell-based; conditions: ATCC 25175, 16 h
Description: as §1, §2

[23] = system: Vibrio alginolyticus XSBZ14; assay: microbe, parasite or virus in culture; type: cell-based; conditions: 16 h
Description: as §1, §2

[24] = system: Candida albicans ATCC 64550; type: cell-based; conditions: ATCC 64550, 16 h
Description: as §1, §3

[25] = system: S. aureus USA300 Cls2A338stop; assay: MIC against telomycin-resistant mutant; type: cell-based
Description: as §1, §2
(§4) Overnight cultures S. aureus USA300 were diluted 10000‐fold in LB broth, and 100 µL of dilute cell suspension was added to 96‐well plates containing 100 µL serially diluted aquicidine C4, telomycin, and daptomycin (with 15 mM CaCl2). Overnight cultures K. pneumoniae CRKP5452 were diluted 5000‐fold in LB broth, and 100 µL of dilute cell suspension was added to 96‐well plates containing 100 µL serially diluted aquicidine L and colistin. After an incubation of 24 h at 37 °C, the MIC value was determined. […] The MIC value was recorded as described above, and the process was repeated daily for 21 days. Experiments were performed two independent times (n = 2).
(§5) Single‐nucleotide polymorphisms (SNPs) for telomycin‐, daptomycin‐ or colistin‐resistant mutants were identified using SNIPPY by mapping DNBSEQ‐seq reads to the reference genome of S. aureus USA300 or K. pneumoniae CRKP5452.

[26] = system: S. aureus USA300 MprFT345A; assay: MIC against daptomycin-resistant mutant; type: cell-based; conditions: Figure S127b, daptomycin-resistant mutant
Description: as §1, §2, §4, §5

[27] = Table S11, LB broth, 37 °C, 16 h, n = 2

In the case of CCCCCCCCCCCCCC(=O)N[C@@H](CCCCN)C(=O)N[C@@H](CCCNC(=N)N)C(=O)N[C@@H](CC(C)C)C(=O)N[C@@H](C)C(=O)N[C@@H](CC(C)C)C(=O)N[C@H](C(=O)N[C@@H](CC(=O)O)C(=O)N[C@@H](CC(=O)O)C(=O)N[C@H](C(=O)N[C@@H](CC(N)=O)C(=O)N[C@H](C(=O)N[C@H](Cc1ccccc1)C(=O)N[C@@H](CC(N)=O)C(=O)O)C(C)C)C(C)C)[C@@H](C)O [synAQU7-L] (Myristoyl-KRLALTDDVNV[dF]N-OH), the “MIC (μg/mL) A. baumannii 1104008” value [1] is reported as over 64 µg/mL, the “MIC (μg/mL) K. pneumoniae CRKP 5452” value [2] is reported as over 64 µg/mL and the “MIC (μg/mL) S. aureus USA300” value ([3]; USA300, 16 h) is reported as over 64 µg/mL. The “MIC (μg/mL) S. pyogenes ATCC 19615” value [4] was over 64 µg/mL, the “MIC (μg/mL) C. albicans ATCC 10231” value [5] was over 64 µg/mL and the “MIC (μg/mL) Hela” value (HeLa cells) was over 64 µg/mL. For the same molecule, the “activity against all nine tested strains” value [6] was “not active”.

CCCCCCCCCCCCCC(=O)N[C@@H](CCCN)C(=O)N[C@H](Cc1ccc(O)cc1)C(=O)N[C@@H](C(=O)N[C@H]1C(=O)N[C@H](CCCN)C(=O)N[C@@H](CCCN)C(=O)N[C@H](C(C)C)C(=O)N[C@@H]([C@@H](C)CC)C(=O)N[C@@H](CC(C)C)C(=O)N[C@H](CCCN)C(=O)N[C@@H]([C@@H](C)O)C(=O)N[C@@H](C)C(=O)O[C@H]1C)C(C)C [synAQU6-C4] (Myristoyl-[Orn][dY][dV][dT][dOrn][Orn][dV]IL[dOrn]TA; ester 4-C) was tested, and the “MIC Escherichia coli DH5α” value (Escherichia coli DH5α) was 8 µg/mL (≈ 5.24 µM), the “MIC Shigella Castellani LXX” value (Shigella Castellani LXX) was over 64 µg/mL and the “MIC Acinetobacter baumannii 1104008” value [1, 27] was 32 µg/mL (≈ 20.9 µM). For the same molecule, the “MIC Acinetobacter baumannii ATCC 17978” value [7] was 32 µg/mL (≈ 20.9 µM), the “MIC Acinetobacter baumannii ATCC 19606” value [8] was over 64 µg/mL and the “MIC Acinetobacter baumannii P53” value [9] was over 64 µg/mL. For the same molecule, the “MIC Enterococcus faecalis 26” value (Enterococcus faecalis 26) was 2 µg/mL (≈ 1.31 µM), the “MIC Enterococcus faecalis 28” value (Enterococcus faecalis 28) was over 64 µg/mL and the “MIC Enterococcus faecalis ATCC 29212” value [10] was over 64 µg/mL. For the same molecule, the “MIC Enterococcus faecium 35682” value [11] was 32 µg/mL (≈ 20.9 µM), the “MIC Klebsiella pneumoniae ATCC 13883” value [12] was 32 µg/mL (≈ 20.9 µM) and the “MIC Klebsiella pneumoniae CRKP 5452” value [2, 27] was 16 µg/mL (≈ 10.5 µM). The “MIC Klebsiella pneumoniae CRKP HS11286” value [13] was 32 µg/mL (≈ 20.9 µM), the “MIC Klebsiella pneumoniae NCTC 5056” value [14] was 32 µg/mL (≈ 20.9 µM) and the “MIC Pseudomonas aeruginosa ATCC 9027” value [15] was over 64 µg/mL. For the same molecule, the “MIC Pseudomonas aeruginosa PAO1” value [16] was 16 µg/mL (≈ 10.5 µM), the “MIC Salmonella enterica ATCC 14028” value [17] was 32 µg/mL (≈ 20.9 µM) and the “MIC Salmonella typhimurium LXX” value [18] was 32 µg/mL (≈ 20.9 µM). The “MIC Staphylococcus aureus ATCC 25923” value [19] was 16 µg/mL (≈ 10.5 µM), the “MIC Staphylococcus aureus ATCC 6538” value [20] was 16 µg/mL (≈ 10.5 µM) and the “MIC Staphylococcus aureus Newman” value [21] was over 64 µg/mL. The “MIC Staphylococcus aureus USA300” value ([3]; USA300, 16 h) was over 64 µg/mL, the “MIC Streptococcus mutans ATCC 25175” value [22] was 4 µg/mL (≈ 2.62 µM) and the “MIC Streptococcus pyogenes ATCC 19615” value [4, 27] was 4 µg/mL (≈ 2.62 µM). The “MIC Vibrio alginolyticus XSBZ14” value [23] was over 64 µg/mL, the “MIC Candida albicans ATCC 10231” value ([5]; Table S11, YPD broth, 30 °C, 16 h, n = 2) was over 64 µg/mL and the “MIC Candida albicans ATCC 64550” value [24] was over 64 µg/mL.

In the case of CCCCCCCCCCCCCC(=O)N[C@H](C)C(=O)N[C@H](C)C(=O)N[C@H](Cc1ccccc1)C(=O)N[C@H](C(=O)N[C@@H](CCCNC(=N)N)C(=O)O)[C@@H](C)O [synAQU1-L] (Myristoyl-[dA][dA][dF]TR-OH), the “MIC (μg/mL) A. baumannii 1104008” value [1] is reported as over 64 µg/mL, the “MIC (μg/mL) K. pneumoniae CRKP 5452” value [2] is reported as over 64 µg/mL and the “MIC (μg/mL) S. aureus USA300” value ([3]; USA300, 16 h) is reported as over 64 µg/mL. For the same molecule, the “MIC (μg/mL) S. pyogenes ATCC 19615” value [4] was over 64 µg/mL, the “MIC (μg/mL) C. albicans ATCC 10231” value [5] was over 64 µg/mL and the “MIC (μg/mL) Hela” value (HeLa cells) was over 64 µg/mL. The “activity against all nine tested strains” value [6] was “not active”.

In the case of Telomycin, the “antibacterial activity (MIC) S. aureus USA300” value ([3]; Figure S127b, wild type) is reported as 4 µg/mL, the “antibacterial activity (MIC) S. aureus USA300 Cls2A338stop” value ([25]; Figure S127b, telomycin-resistant mutant) is reported as 128 µg/mL and the “increase in MIC against resistant mutant compared to wild type” value ([25]; S. aureus USA300 Cls2^A338stop vs wild type) is reported as 32 fold. The “antibacterial activity (MIC) S. aureus USA300 MprFT345A” value [26] was 4 µg/mL.
